Data reported in patent US10239851B2 (priority 2014, dated 2019).
Where two headings read alike, the source gives them in different places.

Columns and labels:
[1] = In vitro dissociation of the water soluble taxane derivatives in blood plasma of rat; type: in vitro ADME, SD rats; settings: 37° C.
Procedure: The obtained water soluble taxane derivatives were formulated as 0.2 mg/ml aqueous solutions. […] After 2 min, 5 min and 10 min of incubation, 0.2 ml of solutions were respectively taken from each of the samples, and added to acetonitrile (0.4 ml) cooled to −20° C. for precipitation of protein.

[2] = In vitro dissociation of the water soluble taxane derivatives in blood plasma of rabbit; type: in vitro ADME, New Zealand white rabbits; settings: 37° C.
Procedure: The obtained water soluble taxane derivatives were formulated as 0.2 mg/ml aqueous solutions. […] After 5 min, 20 min and 60 min of incubation, 0.2 ml of solutions were respectively taken from each of the samples, and added to acetonitrile (0.4 ml) cooled to −20° C. for precipitation of protein.

[3] = rats, 5 mg/kg intravenous, 5 min after administration
Procedure: (§1) After 5 min of administration, 0.3 ml of venous blood was taken from the retrobulbar venous plexus of the rats, placed in heparinized tubes, and centrifuged at 11,000 rpm for 5 min. Plasma was separated, and the concentrations of the compounds in the plasma were determined by liquid chromatography □-mass spectrometry.

[4] = rats, 5 mg/kg intravenous, 5 min after administration; remark: listed apart in the source
Procedure: (§2) After 5 min of administration, 0.3 ml of venous blood was taken from the retrobulbar venous plexus of the rats, placed in heparinized tubes, and centrifuged at 11,000 rpm for 5 min. Blood plasma was separated, and the concentrations of the compounds in the blood plasma were determined by liquid chromatography-mass spectrometry.

[5] = test system: human ovarian cancer SK-OV-3
Text: Test of the inhibitory activity of the water soluble paclitaxel derivatives on subcutaneously xenografted tumor of human ovarian cancer SK-OV-3 in nude mice: evaluating and comparing the inhibitory activity of the water soluble paclitaxel derivatives of the present invention, paclitaxel and Abraxane® on subcutaneously xenografted tumor of human ovarian cancer SK-OV-3 in nude mice.
Human ovarian cancer SK-OV-3 cells were subcutaneously inoculated to nude mice. After the tumor volume reached 100-150 mm^3, the animals were randomly divided into groups (D0), and administered with the water soluble paclitaxel derivatives of the present invention, paclitaxel, and Abraxane®, respectively once per day for 5 days. The tumor volume was measured 2-3 times per week, the animals were weighed and the data were recorded until day 22 (D22) after grouping.
(§3) The tumor volume (V) was calculated according to the equation: V=½×a×b^2, wherein a and b represent the length and the width, respectively.
(§4) T/C (%)=(T−T0)/(C−C0)×100, wherein T and C represent the tumor volume at the end of the experiment; and T0 and C0 represent the tumor volume at the beginning of the experiment.

in vivo [6] = settings: male, SD, rat, iv, 5 mg/kg
Procedure: as §2

[7] = LD50 of the carboxylic acid derivative in mice via the caudal vein; settings: mouse, in vivo, intravenous, solution in physiological saline pH 7.4
Text: In addition, the inventors dissolved the compound of the present invention having the following formula in physiological saline, adjusted the pH of the solution to 7.4, and administered the solution to mice through the caudal vein.

[8] = test system: human prostate cancer PC-3; settings: 14 mg/kg;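 also: human prostate cancer PC-3 cells implanted under the skin of nude mice to form the xenograft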
Text: Test of the inhibitory activity of the water soluble docetaxel derivatives on subcutaneously xenografted tumor of human prostate cancer PC-3 in nude mice: evaluating and comparing the inhibitory activity of the water soluble docetaxel derivatives and docetaxel on subcutaneously xenografted tumor of human prostate cancer PC-3 in nude mice.
Human prostate cancer PC-3 cells were subcutaneously inoculated into nude mice. After the tumor volume reached 100-150 mm^3, the animals were randomly divided into several groups, and administered with the water soluble docetaxel derivatives of the present invention and docetaxel, respectively once on the same day (D0). The tumor volume was measured 2-3 times per week, the animals were weighed and the data were recorded until day 20 (D20) after grouping.
as §3, §4

in vivo [9] = settings: male, SD, rat, iv, 5 mg/kg; remark: listed apart in the source
Procedure: as §1

[10] = Solubility of the water soluble taxane derivatives in physiological saline; type: physicochemical
KM mice = assay: ED50 and LD50 test concerning anesthesia (sequential method) in mice; type: in vivo; settings: confirmation test; for ED50: Mus musculus, anesthesia (loss of righting reflex); for ED50 / Mouse LD50: caudal vein injection
Procedure: (§5) Test samples for the experiment on rabbit were formulated to have corresponding concentrations based on the results from a preliminary test. […] Rats and mice were administered with samples having a fixed concentration of drugs, while the volume of administration altered according to actual situation. The volume of administration to rabbits was 1 mL/kg body weight.
(§6) ED50 and LD50 values concerning anesthesia were determined using a sequential method. Healthy KM mice (male), SD rats (male) and New Zealand White rabbits were used for test. […] For rabbits, the compounds were administered by injection at a constant rate via ear vein for 30 seconds. Before the test, a preliminary test was conducted to determine an approximate dosage (volume of administration) that leads to anesthetization (or death) of animals, which was set as the middle dosage in the formal test. […] The disappearance of righting reflex or death was used as indicators of pharmacological efficacy or toxicity, respectively. The formal test began with the administration of the middle dosage. If animals were anesthetized, a lower dosage was administered; if animals were not anesthetized, a higher dosage was administered, until the cycle was repeated for 3-4 times. LD50 and ED50 were calculated by a sequential method aot425 software. TI was calculated according to the following equation: TI=LD50/ED50.

SD rats = assay: ED50 and LD50 test concerning anesthesia (sequential method) in rats; type: in vivo; settings: for ED50: Rattus norvegicus, anesthesia (loss of righting reflex); for ED50 / Rat LD50: caudal vein injection
Procedure: as §5, §6

Kunming mice = assay: Latent period and persistent period of anesthesia in mice; type: in vivo
mice = settings: cited from earlier work
[11] = D22, 24 mg/kg (paclitaxel 16 mg/kg) D0-4 IV
[12] = PC-3 xenograft, nude mice, D0 IV, single dose, D20
[13] = intravenous injection, dosage 2 * ED50, 3 mg/ml solution
[14] = propofol 25 mg/kg (2 * ED50), results from the present lab
[15] = dosage 1.25 * ED50 (propofol 15 mg/kg, fospropofol 85 mg/kg)
[16] = fospropofol 136 mg/kg (2 * ED50)

Row | Structure (SMILES) | dissociation percent ([1]; 2 min) | dissociation percent ([1]; 5 min) | dissociation percent ([1]; 10 min) | dissociation percent ([2]; 5 min) | dissociation percent ([2]; 20 min) | dissociation percent ([2]; 60 min) | other results
1 | CC(=O)O[C@@]12CO[C@@H]1C[C@H](O)[C@@]1(C)C(=O)[C@H](O)C3=C(C)[C@@H](OC(=O)[C@H](OC(=O)[C@@H](F)CCN(C)C)[C@@H](NC(=O)OC(C)(C)C)c4ccccc4)C[C@@](O)([C@@H](OC(=O)c4ccccc4)[C@H]21)C3(C)C.Cl [Compound 05, 2′-O-[4-(N,N-dimethyl)amino-2(S)-fluorobutyryl]docetaxel hydrochloride] | 56.4% | 91.1% | 100% | 79.3% | 91.8% | 100% | detection of the administered derivative in the blood plasma [3]: cannot be detected
2 | CC(=O)O[C@H]1C(=O)[C@@]2(C)[C@H]([C@H](OC(=O)c3ccccc3)[C@]3(O)C[C@H](OC(=O)[C@H](OC(=O)[C@@H](F)CCN(C)C)[C@@H](NC(=O)c4ccccc4)c4ccccc4)C(C)=C1C3(C)C)[C@]1(OC(C)=O)CO[C@@H]1C[C@@H]2O.Cl [Compound 02, 2′-O-[4-(N,N-dimethyl)amino-2(S)-fluorobutyryl]paclitaxel hydrochloride] | 59.8% | 95.6% | 100% | 68.2% | 97.5% | 100% | detection of the administered derivative in the blood plasma [4]: cannot be detected
3 | CC(=O)O[C@H]1C(=O)[C@@]2(C)[C@H]([C@H](OC(=O)c3ccccc3)[C@]3(O)C[C@H](OC(=O)[C@H](O)[C@@H](NC(=O)c4ccccc4)c4ccccc4)C(C)=C1C3(C)C)[C@]1(OC(C)=O)CO[C@@H]1C[C@@H]2O [paclitaxel, reference compound] | – | – | – | – | – | – | Tumor volume (D0) ([5]; D0, at grouping, 24 mg/kg (paclitaxel 16 mg/kg) D0-4 IV): 134.6 ± 19.7 mm^3; T/C (%) D22 [5, 11]: −60%; Tumor volume (D22) [5, 11]: 53.7 ± 11.2 mm^3; Tumor inhibitory percent (%) D22 ([5]; D22, 24 mg/kg (paclitaxel 16 mg/kg) D0-4 IV, P=0.000 compared to the control): 160%; Weight change (%) D4 ([5]; mouse, in vivo): −4.8%; concentration at 5 min (in vivo [6]): 1790 ng/mL
4 | CN(C)CC[C@@H](F)C(=O)O.Cl | – | – | – | – | – | – | LD50 [7]: > 1500 mg/kg
5 | CC(=O)OC12COC1CC(O)C1(C)C(=O)C(O)C3=C(C)C(OC(=O)C(OC(=O)C(F)CCN(C)C)C(NC(=O)OC(C)(C)C)c4ccccc4)CC(O)(C(OC(=O)c4ccccc4)C21)C3(C)C.Cl [Compound 04, 2′-O-[4-(N,N-dimethyl)amino-2(R)-fluorobutyryl]docetaxel Hydrochloride] | 58.6% | 92.6% | 100% | 80.2% | 93.5% | 100% | detection of the administered derivative in the blood plasma [3]: cannot be detected
6 | CC(=O)O[C@@]12CO[C@@H]1C[C@H](O)[C@@]1(C)C(=O)[C@H](O)C3=C(C)[C@@H](OC(=O)[C@H](O)[C@@H](NC(=O)OC(C)(C)C)c4ccccc4)C[C@@](O)([C@@H](OC(=O)c4ccccc4)[C@H]21)C3(C)C [docetaxel, reference compound] | – | – | – | – | – | – | Tumor volume (mm^3) (D0) ([8]; PC-3 xenograft, nude mice, D0 IV, single dose, D0 (baseline at grouping)): 111.5 ± 1.3 mm^3; T/C (%) D20 [8, 12]: −27%; Tumor volume (mm^3) (D20) [8, 12]: 81.4 ± 25.1 mm^3; Tumor inhibitory percent (%) D20 ([8]; PC-3 xenograft, nude mice, D0 IV, single dose, D20, P(D20)=0.000 vs control): 127%; Weight change (%) D6 ([8]; mouse, in vivo, iv): −12.3%; concentration at 5 min (in vivo [9]): 769 ng/mL
7 | CC(=O)O[C@H]1C(=O)[C@@]2(C)[C@H]([C@H](OC(=O)c3ccccc3)[C@]3(O)C[C@H](OC(=O)[C@H](OC(=O)C(F)(CCCCCCN(C)C4CCCC4)C(F)(F)F)[C@@H](NC(=O)c4ccccc4)c4ccccc4)C(C)=C1C3(C)C)[C@]1(OC(C)=O)CO[C@@H]1C[C@@H]2O.CS(=O)(=O)O (stereo partly drawn) [Compound 15, 2′-O-[8-(N-methyl-N-cyclopentyl)amino-2(R,S)-2-trifluoromethyl-2-fluorooctanoyl]paclitaxel methanesulfonate] | 35.0% | 46.2% | 57.9% | – | – | – | Solubility [10]: 15.0 mg/mL
8 | CC(=O)O[C@H]1C(=O)[C@@]2(C)[C@H]([C@H](OC(=O)c3ccccc3)[C@]3(O)C[C@H](OC(=O)[C@H](OC(=O)C(F)CCN(C)C)[C@@H](NC(=O)c4ccccc4)c4ccccc4)C(C)=C1C3(C)C)[C@]1(OC(C)=O)CO[C@@H]1C[C@@H]2O.Cl (stereo partly drawn) [Compound 03, 2′-O-[4-(N,N-dimethyl)amino-2(R,S)-fluorobutyryl]paclitaxel Hydrochloride] | 61.8% | 93.1% | 100% | 75.7% | 93.5% | 100% | detection of the administered derivative in the blood plasma [4]: cannot be detected
9 | CC(=O)O[C@@]12CO[C@@H]1C[C@H](O)[C@@]1(C)C(=O)[C@H](O)C3=C(C)[C@@H](OC(=O)[C@H](OC(=O)C(F)CCN(C)C)[C@@H](NC(=O)OC(C)(C)C)c4ccccc4)C[C@@](O)([C@@H](OC(=O)c4ccccc4)[C@H]21)C3(C)C.Cl (stereo partly drawn) [Compound 06, 2′-O-[4-(N,N-dimethyl)amino-2(R,S)-fluorobutyryl]docetaxel hydrochloride] | 56.4% | 91.1% | 100% | 75.6% | 98.6% | 100% | detection of the administered derivative in the blood plasma [3]: cannot be detected
10 | CC(=O)O[C@@]12CO[C@@H]1C[C@H](O)[C@@]1(C)C(=O)[C@H](O)C3=C(C)[C@@H](OC(=O)[C@H](OC(=O)C(F)(F)CCCCCN4CC4)[C@@H](NC(=O)OC(C)(C)C)c4ccccc4)C[C@@](O)([C@@H](OC(=O)c4ccccc4)[C@H]21)C3(C)C.CS(=O)(=O)O [Compound 14, 2′-O-[7-N-(aziridin-1-yl)-2,2-difluoroheptanoyl]docetaxel methanesulfonate] | 42.1% | 55.7% | 72.5% | – | – | – | Solubility [10]: 14.3 mg/mL
11 | CC(C)c1cccc(C(C)C)c1O [Propofol, reference compound] | – | – | – | – | – | – | TI Mouse (KM mice; 3 mg/ml solution): 4.9; TI Mouse (KM mice; 6 mg/ml solution): 3.8; ED50 (KM mice; 3 mg/ml solution): 7.9 mg/kg; ED50 (KM mice; 6 mg/ml solution): 11.3 mg/kg; Mouse LD50 (KM mice; 3 mg/ml solution): 38.4 mg/kg; Mouse LD50 (KM mice; 6 mg/ml solution): 42.9 mg/kg; TI Rat (SD rats; 3 mg/ml solution): 5.5; TI Rat (SD rats; 6 mg/ml solution): 4.9; ED50 (SD rats; 3 mg/ml solution): 3.91 mg/kg; ED50 (SD rats; 6 mg/ml solution): 3.5 mg/kg; Rat LD50 (SD rats; 3 mg/ml solution): 21.5 mg/kg; Rat LD50 (SD rats; 6 mg/ml solution): 17.4 mg/kg; Latent Period (Kunming mice; [13]): 8.4 ± 1.1 s; Persistent period (Kunming mice; [13]): 324.8 ± 98.9 s; Latent Period (Kunming mice; [14]): 8.4 ± 1.1 s; Persistent period (Kunming mice; [14]): 324.8 ± 98.9 s; Latent Period (mice; [15]): 10.7 s
12 | CC(=O)O[C@H]1C(=O)[C@@]2(C)[C@H]([C@H](OC(=O)c3ccccc3)[C@]3(O)C[C@H](OC(=O)[C@H](OC(=O)[C@H](F)CCN(C)C)[C@@H](NC(=O)c4ccccc4)c4ccccc4)C(C)=C1C3(C)C)[C@]1(OC(C)=O)CO[C@@H]1C[C@@H]2O.Cl [Compound 01, 2′-O-[4-(N,N-dimethyl)amino-2(R)-fluorobutyryl]paclitaxel Hydrochloride] | 63.5% | 96.8% | 100% | 76.5% | 98.3% | 100% | detection of the administered derivative in the blood plasma [4]: cannot be detected; mean concentration of paclitaxel in the blood plasma [4]: 1789 ng/mL
13 | CC(C)c1cccc(C(C)C)c1OCOP(=O)(O)O [Fospropofol] | – | – | – | – | – | – | Latent Period (mice; [15]): 105 s; Latent Period (mice; [16]): 81 s; Persistent period (mice; [16]): 804 s
